Laboratory results from patent US9974825B2, “Peptides Des-[Asp1]-[Ala1], angiotensin-(1-7) agonist and pharmaceutical compositions for the treatment of diseases” (UNIVERSIDADE FEDERAL DE MINAS GERAIS, priority 2008, dated 2018).

Tests used:
[1] = target: T1, angiotensin converter enzyme (ACE) (Rattus norvegicus, UniProt P47820); experiment: Plasmatic ACE activity, fluorimetric method with Hip-His-Leu substrate; format: biochemical, Wistar rats; details: Wistar rat plasma
T1 construct: from tissue; host or cells: plasma of Wistar rats
T1 sequence (P47820 36-1238 limits assumed): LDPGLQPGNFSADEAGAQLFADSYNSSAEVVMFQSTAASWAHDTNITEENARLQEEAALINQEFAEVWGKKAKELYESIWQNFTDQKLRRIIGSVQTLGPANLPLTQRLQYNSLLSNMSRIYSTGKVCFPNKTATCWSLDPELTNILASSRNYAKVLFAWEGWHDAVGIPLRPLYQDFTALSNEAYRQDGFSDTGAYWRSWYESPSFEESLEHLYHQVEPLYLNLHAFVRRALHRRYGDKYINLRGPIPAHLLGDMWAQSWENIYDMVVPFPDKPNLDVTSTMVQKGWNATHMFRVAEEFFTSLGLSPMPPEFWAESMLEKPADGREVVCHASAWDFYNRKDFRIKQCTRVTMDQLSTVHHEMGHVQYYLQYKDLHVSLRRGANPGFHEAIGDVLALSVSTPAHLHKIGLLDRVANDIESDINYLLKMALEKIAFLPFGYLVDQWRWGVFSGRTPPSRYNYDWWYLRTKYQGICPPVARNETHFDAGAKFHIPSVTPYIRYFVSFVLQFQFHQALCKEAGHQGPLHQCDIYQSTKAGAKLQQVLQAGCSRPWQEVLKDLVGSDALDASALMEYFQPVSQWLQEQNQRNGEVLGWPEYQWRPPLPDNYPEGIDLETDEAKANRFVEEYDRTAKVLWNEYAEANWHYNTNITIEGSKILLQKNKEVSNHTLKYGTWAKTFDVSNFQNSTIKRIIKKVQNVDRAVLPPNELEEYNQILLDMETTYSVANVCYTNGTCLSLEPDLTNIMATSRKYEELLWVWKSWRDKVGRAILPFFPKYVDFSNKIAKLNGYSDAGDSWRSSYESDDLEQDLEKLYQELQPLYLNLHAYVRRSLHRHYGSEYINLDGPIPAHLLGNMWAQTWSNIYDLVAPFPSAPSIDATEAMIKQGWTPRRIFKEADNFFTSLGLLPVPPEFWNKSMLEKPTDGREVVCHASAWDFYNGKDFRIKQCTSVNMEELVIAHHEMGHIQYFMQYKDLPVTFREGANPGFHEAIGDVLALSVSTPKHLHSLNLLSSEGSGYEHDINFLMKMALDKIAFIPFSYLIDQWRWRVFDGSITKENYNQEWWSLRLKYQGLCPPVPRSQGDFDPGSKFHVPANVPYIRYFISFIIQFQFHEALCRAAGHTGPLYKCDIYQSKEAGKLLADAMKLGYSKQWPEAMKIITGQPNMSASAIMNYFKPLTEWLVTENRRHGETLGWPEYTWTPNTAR
Description: The plasmatic activity of ACE was measured by the fluorimetric method using Hip-His-Leu as substrate, as previously described (Santos, R. A. S. et al., Hypertension, 7:244-52, (1985)). Plasma aliquots (10 μL) of Wistar rats were incubated with a […] solution containing a 1 mM substrate (Hip-His-Leu) and 0.4 M of sodium borate, 0.9 M NaCl (pH=8.3) for 15 minutes at 37° C. The reaction was halted by adding 1.2 mL of NaOH at 0.34 M and […] of orthoftaldehyde (20 mg/mL in methanol). After 10 minutes at environment temperature, […] of HCl at 3 N was added. Later on, after a 5-minute 800×g centrifugation, the floating solution fluorescence was measured (a 365 nm excitation and a 495 nm emission). The blank was prepared by inverting the addition order of plasma and NaOH. A 0.5 to 20 nmol curve, containing the product (His-Leu) resulting of the substrate break (Hip-His-Leu) by ACE plasmatic activity, was prepared in each assay. In order to test the inhibition effect of ACE by the PEPTIDEs Ang-(1-7) and Ala^1-Ang-(1-7), 3.3×10^−7 or 3.3×10^−6 M of each PEPTIDE was added before the plasma addition. […] The percentage of enzymatic activity inhibition was estimated in function of the maximum activity obtained.

[2] = tested on: aorta rings of AT2−/− mice; experiment: Vasorelaxation in precontracted aorta rings of AT2-/- mice; format: cell-based; details: precontracted with fenilefrine 0.1 μM
Description: This example describes the vasodilating effect of Ala^1-Ang-(1-7) and Ang-(1-7)—which is independent of the AT2 receptor—on the aorta of mice with genetic deletion of AT2 (AT2−/−) receptor.
The original rings of the descending thoracic aorta (2 mm), free from adipose tissue and connective tissue, were incubated in gasified solution (95% O2 and 5% CO2) of Krebs-Henseleit (mmol/L): NaCl 110.8, KCl 5.9, NaHCO3 25.0, MgSO4 1.07, CaCl2 2.49, NaH2PO4 2.33 and glucose 11.51, under a temperature of 37° C. and a 0.5 g tension, being equilibrated for 1 hour. The functional presence of endothelium was tested by its relaxing capacity produced by acetylcholine [ACh] (10 μM) on vessels precontracted with fenilefrine (0.3 μM). Only the vessels showing relaxation above 70% of extended contraction produced by fenilefrine were taken into account. Data on mechanical activity were isometrically obtained by using an amplified strength transducer (Model TMB-4; World Precision Instruments, Inc. Sarasota, Fla., USA) and converted to digital signal (AD16JR; World Precision Instruments, Inc.). […]
The aorta rings of AT2−/− mice were precontracted (approx. 1.0 g of tension) with a felinefrine submaximum concentration (0.1 μM). […] The vasodilating effects of Ala^1-Ang-(1-7) and Ang-(1-7) were expressed as a relaxation percentage relative to the maximum contraction induced by fenilefrine. […]

| Substance | ACE inhibition ([1]; peptide 3.3×10^−6 M) [%] | ACE inhibition ([1]; peptide 3.3×10^−7 M) [%] | vasodilating effect [2] |
| --- | --- | --- | --- |
| Ala^1-Arg^2-Val^3-Tyr^4-Ile^5-His^6-Pro^7 [Ala^1-Ang-(1-7)] | 98.3 | 76.3 | preserved |
| Asp^1-Arg^2-Val^3-Tyr^4-Ile^5-His^6-Pro^7 [Ang-(1-7)] | 85.8 | 42.4 | preserved |
